This passage reports IC50 and inhibition in vivo results from patent US10000476B2, “Pyridone derivative, pharmaceutical containing the same and methods of use thereof” (KAKEN PHARMACEUTICAL CO., LTD., priority 2011, dated 2018).

One experiment addresses human MMP-9 (Homo sapiens (Human), UniProt P14780). As to the kind of experiment: MMP-9 inhibition test. The experiment is classed as biochemical. Conditions: read-out: MMPs IC50 MMP-9. Here is the method:
(§1) MMP inhibition tests can be carried out, for example, using a fluorescent synthetic substrate based on the methods described in Bickett et al. (D. Mark Bickett et al., Anal. Biochem., 1993, 212, 58-64) and Nagase et al. (H. Nagase et al., J. Biol. Chem., 1994, 269, 20952-20957). The method for each MMP inhibition test is shown below.
(§2) 90 μL (11 ng) of human MMP-9 (Calbiochem #444231) was mixed with 10 μL of 10 mM APMA, and activated by reacting at 37° C. for 2 hours. 10 μL of the resultant enzyme solution was diluted to 90 μL with an assay buffer A. The mixture was added to 90 μL of a 20 μM fluorescent substrate (Dnp-Pro-Cha-Gly-Cys(Me)-His-Ala-Lys(Nma)-NH2) (SEQ ID NO: 2) prepared with an assay buffer B, and reacted at 37° C. for 4 hours. Enzyme activity was then determined by measuring with a fluorescence intensity meter (Labsystems, Fluoroskan Ascent) at an excitation wavelength of 355 nm and a measurement wavelength of 460 nm.
(§3) From the enzyme activity in the presence or the absence of the test substance, the inhibition rate was determined, and the 50% inhibitiory concentration (IC50) of the test substance was calculated.

The target of another experiment is human MMP-14 (Homo sapiens (Human), UniProt P50281). As to the kind of experiment: MMP-14 inhibition test. Conditions: read-out: MMPs IC50 MMP-14. Type of experiment: biochemical. As to the method:
as §1
90 μL (1.9 ng) of human MMP-14 (Calbiochem #475935) prepared with an assay buffer A was added to 90 μL of a 20 μM fluorescent substrate (Dnp-Pro-Cha-Gly-Cys(Me)-His-Ala-Lys(Nma)-NH2) (SEQ ID NO: 2) prepared with an assay buffer B, and reacted at 37° C. for 5 hours. Enzyme activity was then determined by measuring with a fluorescence intensity meter (Labsystems, Fluoroskan Ascent) at an excitation wavelength of 355 nm and a measurement wavelength of 460 nm.
as §3

A further experiment deals with human MMP-13 (Homo sapiens (Human), UniProt P45452). Description: MMP-13 inhibition test. Conditions: read-out: MMPs IC50 MMP-13. Type of experiment: biochemical. As to the method: as §1
as §2, with “(18” for “(11”, “MMP-13” for “MMP-9”, “# CC068) or 90 μL (130 ng) of human MMP-13 (Calbiochem #444287)” for “#444231)”, “1 hour.” for “2 hours.”
as §3

For experiment [1], the system named is auricular oedema induced by TPA in BALB/c mice. Description: Inhibition test of auricular oedema induced by single application of TPA in mouse. Type of experiment: in vivo. Conditions: 1 w/v % solution applied topically to ear 1 hour before TPA, auricle thickness 6 hours after TPA, read-out: Auricular oedema inhibition rate (%). Here is the method: Inhibition Test of Auricular Oedema Induced by Single Application of TPA (12-O-tetradecanoylphorbol-13-acetate) in Mouse (In Vivo Efficacy Test Based on TNF-α-Related Cutaneous Inflammation)
Auricular oedema was induced by applying 54 μmol/L TPA-acetone solution on both the inner and outer sides of the left ear of BALB/c mice (application volume of 54 μmol/L TPA-acetone solution is 10 μL for each side of the left ear (i.e. 1.08 nmol TPA/auricle)). For a non-induced group, acetone was similarly applied instead of the 54 μmol/L TPA-acetone solution. The test substance was dissolved and prepared in a 1 w/v % solution of acetone containing 10 vol % DMSO (topical administration vehicle), then the test solution was applied onto both the inner and outer sides of the left ear of the mice (application volume of this test solution is 10 μL for each side of the left ear) 1 hour before the TPA application. For a control group, the topical administration vehicle was similarly applied instead of the test substance solution. For an etanercept group, 0.2 mL of a 5 mg/mL etanercept solution was intravenously administered (1 mg/mouse) the day before TPA application and 1.5 hours before TPA application. For a human IgG (hIgG) group (etanercept control group), 0.2 mL of a 5 mg/mL hIgG solution was intravenously administered (1 mg/mouse). Auricle thickness was measured under ether anesthesia the day before TPA application and 6 hours after TPA application for evaluation of the auricular oedema inhibition effect of the test substance based on the increase in auricle thickness as an index.
The auricular oedema inhibition rate (%) of the test substance was calculated based on the following formula using (A) the average value of the increase in auricular thickness of the group administered with the test substance, (B) the average value of the increase in auricular thickness of the non-induced group, and (C) the average value of the increase in auricular thickness of the control group. […]

Some results are limits rather than exact numbers.

Sequence of human MMP-9 (P14780 107-707): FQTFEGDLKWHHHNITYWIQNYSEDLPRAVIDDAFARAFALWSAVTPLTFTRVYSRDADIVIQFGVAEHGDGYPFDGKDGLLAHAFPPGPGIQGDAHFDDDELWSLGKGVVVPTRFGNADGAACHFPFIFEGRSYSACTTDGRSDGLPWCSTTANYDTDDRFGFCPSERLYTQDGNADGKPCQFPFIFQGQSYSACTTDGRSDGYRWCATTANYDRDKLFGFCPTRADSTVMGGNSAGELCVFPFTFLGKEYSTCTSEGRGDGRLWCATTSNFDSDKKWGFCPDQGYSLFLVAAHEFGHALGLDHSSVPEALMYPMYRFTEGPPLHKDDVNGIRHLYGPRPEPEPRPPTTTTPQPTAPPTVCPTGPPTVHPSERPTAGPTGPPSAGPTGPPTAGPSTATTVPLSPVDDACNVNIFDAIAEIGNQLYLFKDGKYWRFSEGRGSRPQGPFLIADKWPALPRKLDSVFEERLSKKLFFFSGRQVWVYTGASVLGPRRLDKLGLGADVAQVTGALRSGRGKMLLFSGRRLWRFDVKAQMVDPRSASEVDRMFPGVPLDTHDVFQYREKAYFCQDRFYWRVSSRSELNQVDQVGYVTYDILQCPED

Consider `Cc1cccn(CC2(c3ccccc3)NC(=O)NC2=O)c1=O` (stereo not shown) [Compound I-1, 5-[(3-methyl-2-oxopyridin-1(2H)-yl)methyl]-5-phenyl-imidazolidine-2,4-dione], for which the concentration for half-maximal inhibition (IC50) at human MMP-9 is > 100 µM; on human MMP-14, 31 µM; at human MMP-13, 45 µM.

Consider `Cc1cccn(CC2(c3ccc(Oc4ccccc4)cc3)NC(=O)NC2=O)c1=O` (stereo not shown) [Compound I-9, 5-[(3-methyl-2-oxopyridin-1(2H)-yl)methyl]-5-(4-phenoxyphenyl)imidazolidine-2,4-dione], for which the inhibition in vivo at 10000 µg/mL in experiment [1] turned out to be 66%. Moreover, the figures for the IC50 at human MMP-9, on human MMP-14 and on human MMP-13 were > 100 µM, 12 µM and > 100 µM, respectively.

Consider `Cc1cccn(CC2(c3ccc(F)c(F)c3)NC(=O)NC2=O)c1=O` (stereo not shown) [Compound I-10, 5-(3,4-difluorophenyl)-5-[(3-methyl-2-oxopyridin-1(2H)-yl)methyl] imidazolidine-2,4-dione], for which, in experiment [1], the inhibition in vivo at 10000 µg/mL was 46%. Moreover, the values for the IC50 at human MMP-9, at human MMP-14 and at human MMP-13 were > 100 µM, 30 µM and > 100 µM, respectively.

As for `COc1ccc(Cl)cc1C1(Cn2cccc(C)c2=O)NC(=O)NC1=O` (stereo not shown) [Compound I-27, 5-(5-chloro-2-methoxyphenyl)-5-[(3-methyl-2-oxopyridin-1(2H)-yl)methyl]imidazolidine-2,4-dione], the results for the half-inhibitory concentration (IC50) on human MMP-9, at human MMP-14 and at human MMP-13 were > 100 µM, 11 µM and > 100 µM, respectively.

Consider `Cc1cccn(CC2(c3ccc(Cc4ccccc4)cc3)NC(=O)NC2=O)c1=O` (stereo not shown) [Compound I-40, 5-(4-benzylphenyl)-5-[(3-methyl-2-oxopyridin-1(2H)-yl)methyl]imidazolidine-2,4-dione], for which the inhibition in vivo at 10000 µg/mL in experiment [1] was 63%. The IC50 is > 100 µM at human MMP-9, 22 µM at human MMP-14 and > 100 µM at human MMP-13.

With `Cc1cccn(CC2(c3ccc(Cc4ccc(F)cc4)cc3)NC(=O)NC2=O)c1=O` (stereo not shown) [Compound I-41, 5-[4-(4-fluorobenzyl)phenyl]-5-[(3-methyl-2-oxopyridin-1(2H)-yl)methyl] imidazolidine-2,4-dione], the inhibition in vivo at 10000 µg/mL in experiment [1] was 51%. The IC50 on human MMP-9 is > 100 µM; at human MMP-14 it was 21 µM; at human MMP-13 it was > 100 µM.

As to `Cc1cccn(CC2(c3cccc(-c4cccnc4)c3)NC(=O)NC2=O)c1=O` (stereo not shown) [Compound I-62], in experiment [1], the inhibition in vivo at 10000 µg/mL is 47%. Besides, the figures for the IC50 on human MMP-9, at human MMP-14 and at human MMP-13 were 67 µM, 22 µM and > 100 µM, respectively.

For `Cc1cccn(CC2(c3ccc(OCc4ccccc4)cc3)NC(=O)NC2=O)c1=O` (stereo not shown) [Compound I-64], in experiment [1], the inhibition in vivo at 10000 µg/mL is 50%. Besides, the half-maximal inhibitory concentration (IC50) at human MMP-9 is > 100 µM; at human MMP-14 it was 6 µM; at human MMP-13 it was > 100 µM.

In the case of `Cc1cccn(CC2(c3ccc(Oc4ccccc4F)cc3)NC(=O)NC2=O)c1=O` (stereo not shown) [Compound I-86], the inhibition in vivo at 10000 µg/mL in experiment [1] was 68%. Moreover, the values for the IC50 at human MMP-9, on human MMP-14 and on human MMP-13 were > 100 µM, 23 µM and > 100 µM, respectively.

For orientation: IC50 means the midpoint of a concentration-inhibition curve.
